{"source": "patent US20120329842A1", "about": "(priority 2010, published 2012)", "key": {"SPM-1": {"test_system": "SPM-1", "conditions": "data from ref. 2; cited from earlier work"}, "VIM-1": {"target": "VIM-1 (Pseudomonas aeruginosa, UniProt A0A0F7KYQ8)"}, "GIM-1": {"target": "GIM-1 (Pseudomonas aeruginosa, UniProt Q704V1)", "sequence (Q704V1 entry or part of it)": "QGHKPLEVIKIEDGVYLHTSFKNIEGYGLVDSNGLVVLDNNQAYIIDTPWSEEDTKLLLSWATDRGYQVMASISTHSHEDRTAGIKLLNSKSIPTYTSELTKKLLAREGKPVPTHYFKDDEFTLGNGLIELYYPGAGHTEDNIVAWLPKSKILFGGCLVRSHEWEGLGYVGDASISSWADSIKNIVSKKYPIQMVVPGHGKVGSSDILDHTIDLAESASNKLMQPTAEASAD", "conditions": "data from ref. 2; cited from earlier work"}, "IMP-1 [1]": {"target": "T1, IMP-1 (Serratia marcescens, UniProt P52699)", "T1 sequence (P52699 19-246 limits assumed)": "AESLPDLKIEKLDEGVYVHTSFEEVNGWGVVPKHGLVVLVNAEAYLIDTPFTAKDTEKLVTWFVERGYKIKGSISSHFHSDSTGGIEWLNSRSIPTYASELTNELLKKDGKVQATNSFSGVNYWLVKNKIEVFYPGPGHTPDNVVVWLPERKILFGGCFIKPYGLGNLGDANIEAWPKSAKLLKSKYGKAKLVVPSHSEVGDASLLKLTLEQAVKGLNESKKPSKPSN", "conditions": "data from ref. 2; cited from earlier work"}, "Bla2": {"target": "Bla2 (Bacillus anthracis, UniProt Q93T40)", "sequence (Q93T40 1-256)": "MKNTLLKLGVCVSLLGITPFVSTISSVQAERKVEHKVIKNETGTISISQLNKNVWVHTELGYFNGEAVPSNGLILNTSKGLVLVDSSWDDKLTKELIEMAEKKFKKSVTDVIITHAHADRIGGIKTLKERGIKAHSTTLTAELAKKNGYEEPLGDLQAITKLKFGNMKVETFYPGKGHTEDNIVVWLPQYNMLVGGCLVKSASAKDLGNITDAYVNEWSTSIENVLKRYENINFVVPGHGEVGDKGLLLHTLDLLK", "experiment": "biochemical", "format": "biochemical"}, "[2]": {"target": "human matrix metalloproteinase 8 (MMP-8) (Homo sapiens, UniProt P22894)", "sequence (P22894 101-467)": "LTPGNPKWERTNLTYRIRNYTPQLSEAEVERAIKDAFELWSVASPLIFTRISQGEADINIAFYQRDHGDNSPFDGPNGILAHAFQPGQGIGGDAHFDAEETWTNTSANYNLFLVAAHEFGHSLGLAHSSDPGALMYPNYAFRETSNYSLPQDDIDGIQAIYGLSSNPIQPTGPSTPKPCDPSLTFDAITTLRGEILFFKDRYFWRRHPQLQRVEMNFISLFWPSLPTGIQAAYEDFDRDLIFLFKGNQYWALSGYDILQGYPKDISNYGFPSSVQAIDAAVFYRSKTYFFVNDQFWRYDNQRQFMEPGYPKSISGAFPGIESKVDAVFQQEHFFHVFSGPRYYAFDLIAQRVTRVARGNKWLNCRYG", "experiment": "Human MMP-8 inhibition, commercial assay kit (Enzo)", "conditions": "at concentrations up to 100 μM"}, "IMP-1 [3]": {"target": "T1, IMP-1", "experiment": "biochemical", "design": "species or system Pseudomonas aeruginosa"}, "[4]": {"target": "subclass B2 metallo-β-lactamase CphA (Aeromonas hydrophila, UniProt P26918)", "sequence (P26918 28-254)": "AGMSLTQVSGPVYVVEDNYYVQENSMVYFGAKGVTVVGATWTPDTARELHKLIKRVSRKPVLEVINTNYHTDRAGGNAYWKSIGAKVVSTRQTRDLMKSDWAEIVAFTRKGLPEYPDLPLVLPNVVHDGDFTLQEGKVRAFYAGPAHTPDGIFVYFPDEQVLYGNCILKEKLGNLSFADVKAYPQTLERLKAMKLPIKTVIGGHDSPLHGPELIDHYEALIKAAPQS", "conditions": "cited from earlier work"}, "IMP-1 [5]": {"target": "T1, IMP-1", "conditions": "cited from earlier work"}, "other MBLs": {"test_system": "other MBLs", "conditions": "cited from earlier work"}, "[6]": {"test_system": "O=C(Cc1cccs1)N[C@@H]1C(=O)N2C(C(=O)O)=C(/C=C/c3ccc([N+](=O)[O-])cc3[N+](=O)[O-])CS[C@H]12", "experiment": "purified protein, by the assay type", "conditions": "pH 7.5"}, "IMP-1 [7]": {"target": "T1, IMP-1", "conditions": "ratio of Km values"}, "[8]": {"conditions": "data from ref. 2; read-out: Km for VIM-1; cited from earlier work"}, "[9]": {"conditions": "read-out: Km for VIM-1; data from ref. 2; cited from earlier work"}}, "note": "Read-outs that look alike come from different tables or passages of the source."}
{"compound": "CC1(C)S[C@@H]2[C@H](NC(=O)[C@H](N)c3ccccc3)C(=O)N2[C@H]1C(=O)O", "note": "[Ampicillin]", "values": [{"measurement": "Km", "setting": "SPM-1", "value": 72, "unit": "µM"}, {"measurement": "Km", "setting": "VIM-1; [8]", "value": 917, "unit": "µM"}, {"measurement": "Km", "setting": "GIM-1", "value": 20, "unit": "µM"}, {"measurement": "Km", "setting": "IMP-1 [1]", "value": 200, "unit": "µM"}]}
{"compound": "C[C@H](CS)C(=O)N1CCC[C@H]1C(=O)O", "note": "[Captopril, captopril]", "values": [{"measurement": "IC50", "setting": "Bla2", "value": 25, "unit": "µM"}]}
{"compound": "CC(=O)OCC1=C(C(=O)O)N2C(=O)[C@@H](NC(=O)Cc3cccs3)[C@H]2SC1", "note": "[Cephalothin]", "values": [{"measurement": "Km", "setting": "SPM-1", "value": 4, "unit": "µM"}, {"measurement": "Km", "setting": "VIM-1; [9]", "value": 53, "unit": "µM"}, {"measurement": "Km", "setting": "GIM-1", "value": 16, "unit": "µM"}, {"measurement": "Km", "setting": "IMP-1 [1]", "value": 21, "unit": "µM"}]}
{"compound": "O=C(O)[C@@H]1CSC(c2ccccc2)=N1", "note": "[Compound 1, (R)-4,5-dihydro-2-phenylthiazole-4-carboxylic acid]", "values": [{"measurement": "inhibition of human MMP-8", "setting": "[2]", "value": "did not exhibit inhibition"}]}
{"compound": "O=C(O)c1csc(Cc2ccccc2)n1", "note": "[Compound 2, 2-benzylthiazole-4-carboxylic acid]", "values": [{"measurement": "inhibition of human MMP-8", "setting": "[2]", "value": "did not exhibit inhibition"}]}
{"compound": "O=C(NCc1ccccc1)c1cccc(O)n1", "note": "[Compound 3, N-benzyl-6-hydroxypyridine-2-carboxamide]", "values": [{"measurement": "IC50", "setting": "IMP-1 [3]", "value": 13.9, "unit": "µM"}, {"measurement": "Ki", "setting": "IMP-1 [3]", "value": "3 to 19", "unit": "µM"}]}
{"compound": "O=c1ccc(-c2ccccc2)cn1O", "note": "[Compound 4, 1-hydroxy-5-phenylpyridin-2-one]", "values": [{"measurement": "IC50", "setting": "IMP-1 [3]", "value": 12, "unit": "µM"}, {"measurement": "Ki", "setting": "IMP-1 [3]", "value": "3 to 19", "unit": "µM"}]}
{"compound": "O=C(O)C1CS[C@H](c2ccccc2O)N1", "note": "(stereo partly drawn) [Compound 160, (R)-2-(2-hydroxyphenyl)thiazolidine-4-carboxylic acid]", "values": [{"measurement": "IC50", "setting": "IMP-1 [3]; read-out: IMP-1 IC50", "value": 29.2, "unit": "µM"}, {"measurement": "IC50", "setting": "Bla2; read-out: Bla2 IC50", "value": 16, "unit": "µM"}]}
{"compound": "CC(C)(C)OC(=O)Nc1cccc(C2=NC(C(=O)O)CS2)c1", "note": "(stereo not drawn) [Compound 361, 2-[3-(tert-butoxycarbonylamino)phenyl]-4,5-dihydrothiazole-4-carboxylic acid]", "values": [{"measurement": "IC50", "setting": "Bla2; read-out: Bla2 IC50", "value": 70, "unit": "µM"}]}
{"compound": "Nc1cccc(C2=NC(C(=O)O)CS2)c1", "note": "(stereo not drawn) [Compound 362, 2-(3-aminophenyl)-4,5-dihydrothiazole-4-carboxylic acid]", "values": [{"measurement": "IC50", "setting": "IMP-1 [3]; read-out: IMP-1 IC50", "value": 100, "unit": "µM"}, {"measurement": "IC50", "setting": "Bla2; read-out: Bla2 IC50", "value": 20, "unit": "µM"}, {"measurement": "Ki", "setting": "Bla2; read-out: Bla2 KI", "value": 15, "unit": "µM"}]}
{"compound": "CC1(C)SC(c2ccc(Br)cc2)=N[C@H]1C(=O)O", "note": "[Compound 365, (S)-2-(4-bromophenyl)-4,5-dihydro-5,5-dimethylthiazole-4-carboxylic acid]", "values": [{"measurement": "IC50", "setting": "IMP-1 [3]; read-out: IMP-1 IC50", "value": 150, "unit": "µM"}]}
{"compound": "CC(=O)Nc1cccc(C2=N[C@@H](C(=O)O)C(C)(C)S2)c1", "note": "[Compound 368, (S)-2-(3-acetamidophenyl)-4,5-dihydro-5,5-dimethyolthiazole-4-carboxylic acid]", "values": [{"measurement": "IC50", "setting": "IMP-1 [3]; read-out: IMP-1 IC50", "value": 60, "unit": "µM"}]}
{"compound": "COC(=O)[C@@H]1CSC(CNC(=O)OC(C)(C)C)=N1", "note": "[Compound 369, tert-butyl ((R)-4-(methoxycarbonyl)-4,5-dihydrothiazol-2-yl)methylcarbamate]", "values": [{"measurement": "IC50", "setting": "Bla2; read-out: Bla2 IC50", "value": 110, "unit": "µM"}]}
{"compound": "C[C@@H](O)[C@H]1C(=O)N2C(C(=O)O)=C(SCCN=CN)C[C@H]12", "note": "[Imipenem, imipenem]", "values": [{"measurement": "Km", "setting": "VIM-1; [9]", "value": 1.5, "unit": "µM"}, {"measurement": "Km", "setting": "GIM-1", "value": 27, "unit": "µM"}]}
{"compound": "C[C@@H](O)[C@H]1C(=O)N2C(C(=O)O)=C(S[C@@H]3CN[C@H](C(=O)N(C)C)C3)[C@H](C)[C@H]12", "note": "[Meropenem]", "values": [{"measurement": "Km", "setting": "SPM-1", "value": 281, "unit": "µM"}, {"measurement": "Km", "setting": "VIM-1; [8]", "value": 48, "unit": "µM"}, {"measurement": "Km", "setting": "GIM-1", "value": 2.7, "unit": "µM"}]}
{"compound": "O=C(Cc1cccs1)N[C@@H]1C(=O)N2C(C(=O)O)=C(/C=C/c3ccc([N+](=O)[O-])cc3[N+](=O)[O-])CS[C@H]12", "note": "[Nitrocefin, nitrocefin]", "values": [{"measurement": "Km", "setting": "SPM-1", "value": 4, "unit": "µM"}, {"measurement": "Km", "setting": "VIM-1; [9]", "value": 17, "unit": "µM"}, {"measurement": "Km", "setting": "GIM-1", "value": 5.8, "unit": "µM"}, {"measurement": "Km", "setting": "IMP-1 [1]", "value": 27, "unit": "µM"}]}
{"compound": "O=C(O)c1cccc(C(=O)O)n1", "note": "[pyridine-2,6-dicarboxylic acid]", "values": [{"measurement": "inhibition of CphA activity", "setting": "[4]", "value": "potently inhibit"}, {"measurement": "inhibitory effect on IMP-1", "setting": "IMP-1 [5]", "value": "potently inhibit"}]}
{"compound": "O=C(O)c1ccccn1", "note": "[pyridine-2-carboxylic acid]", "values": [{"measurement": "activity against other MBLs", "setting": "other MBLs", "value": "little or no activity"}, {"measurement": "Ki", "setting": "[4]; read-out: Ki against CphA", "value": 5.7, "unit": "µM"}, {"measurement": "inhibitory effect on IMP-1", "setting": "IMP-1 [5]", "value": "only a very weak inhibitory effect"}]}
{"compound": "IMP-1 (Serratia marcescens)", "values": [{"measurement": "Km", "setting": "[6]", "value": 25, "unit": "µM"}]}
{"compound": "penicillin G", "values": [{"measurement": "Km", "setting": "SPM-1", "value": 38, "unit": "µM"}, {"measurement": "Km", "setting": "VIM-1; [8]", "value": 841, "unit": "µM"}, {"measurement": "Km", "setting": "GIM-1", "value": 46, "unit": "µM"}, {"measurement": "Km", "setting": "IMP-1 [1]", "value": 520, "unit": "µM"}, {"measurement": "fold less tight binding to IMP-1 than imipenem", "setting": "IMP-1 [7]", "value": "~13", "unit": "×"}, {"measurement": "fold less tight binding to IMP-1 than nitrocefin", "setting": "IMP-1 [7]", "value": "~20", "unit": "×"}]}
